# Measured values as given in US10233186B2, “Inhibitors of activin receptor-like kinase” (BLUEPRINT MEDICINES CORPORATION, priority 2016, dated 2019).
# Tests used:
# [1] = molecular target: T1, ALK2 R206H (GST-tagged mutant ALK2) (Homo sapiens, UniProt Q04771, R206H); assay: ALK binding assay (LANTHASCREEN TR-FRET competitive binding, displacement of Kinase Tracer 178); details: ALK2 R206H, LANTHASCREEN TR-FRET competitive binding; read-out: Binding Assay (IC50)
# T1 construct: purchased Carna Bioscience or ThermoFisher 09-148 or PV6232
# T1 sequence (Q04771 21-509 R206H): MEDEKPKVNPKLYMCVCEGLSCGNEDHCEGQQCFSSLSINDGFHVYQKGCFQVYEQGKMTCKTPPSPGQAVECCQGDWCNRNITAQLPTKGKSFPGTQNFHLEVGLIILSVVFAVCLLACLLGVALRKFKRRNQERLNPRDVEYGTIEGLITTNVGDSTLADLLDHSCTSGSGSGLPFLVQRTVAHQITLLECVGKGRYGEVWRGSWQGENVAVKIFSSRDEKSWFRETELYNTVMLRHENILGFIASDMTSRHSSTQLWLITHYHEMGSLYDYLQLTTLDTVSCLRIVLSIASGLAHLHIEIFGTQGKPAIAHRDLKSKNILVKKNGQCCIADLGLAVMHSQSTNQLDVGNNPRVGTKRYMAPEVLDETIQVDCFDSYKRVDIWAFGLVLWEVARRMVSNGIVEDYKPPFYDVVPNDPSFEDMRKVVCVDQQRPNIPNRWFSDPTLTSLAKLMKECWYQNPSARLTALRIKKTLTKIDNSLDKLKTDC
# [2] = molecular target: T2, human ALK2 R206H (Homo sapiens, UniProt Q04771, R206H); assay: Cell-based ALK2-R206H cell activity assay (Smad1-Ser463/Ser465 phosphorylation by AlphaLISA in HEK293-ALK2-R206H cells); details: read-out: Cell Line (Cell Assay IC50)
# T2 construct: expressed in transfected cells; host or cells: HEK293 (ATCC CRL1573), lentivirus transduction, blasticidin selection
# T2 sequence (Q04771 21-509 R206H): T1 sequence (Q04771 21-509 R206H)
# Summary of the method: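 Stable HEK293 cells expressing C-terminally FLAG-tagged human ALK2 R206H (lentiviral, blasticidin-selected) were treated with compounds in 10-point, 3-fold dilutions from 10 μM or 1 μM top, in duplicate. Smad1 Ser463/Ser465 phosphorylation was read by AlphaLISA.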
SMILES,IC50 [1] [nM],IC50 [2] [nM]
CCN1CC(F)C(c2ccc(-c3cc4c(N5CCN(C(=O)C6CC6)CC5)ccnn4c3)cc2)C1 (centres unmarked) [Compound 228],< 10,< 100
"CCOC(=O)N1CCN(c2ccnn3cc(-c4ccc(C5CCN(CC)CC5)cc4)cc23)CC1 [Compound 230, ethyl 4-(6-(4-(1-ethylpiperidin-4-yl)phenyl)pyrrolo[1,2-b]pyridazin-4-yl)piperazine-1-carboxylate]",< 10,< 100
CCNC(=O)N1CCN(c2ccnn3cc(-c4ccc(C5(O)CN(C(C)C)C5)cc4)cc23)CC1 [Compound 235],< 10,100 to 500
[2H]C([2H])([2H])C([2H])([2H])N1CCN(c2ccc(-c3cc4c(N5CCN(C(=O)C6CC6)CC5)ccnn4c3)cc2)CC1 [Compound 237],< 10,< 100
[2H]C([2H])([2H])C([2H])([2H])N1CCN(c2ccc(-c3cc4c(N5CCN(C(=O)NCC)CC5)ccnn4c3)cc2)CC1 [Compound 240],< 10,< 100
CCN1CC2(C1)CN(c1ccc(-c3cc4c(N5CCN(C(=O)C6CC6)CC5)ccnn4c3)cc1)C2 [Compound 241],< 10,< 100
O=C(C1CC1)N1CCN(c2ccnn3cc(-c4ccc(N5CCN6CCCC6C5)cc4)cc23)CC1 (centres unmarked) [Compound 243],< 10,< 100
CC(=O)N1CCC(c2ccc(-c3cc4c(N5CCN(C(=O)C6CC6)CC5)ccnn4c3)cc2)CC1 [Compound 245],10 to 50,100 to 500
CC(C)N1CCC[C@H](c2ccc(-c3cc4c(N5CCN(C(=O)C6CC6)CC5)ccnn4c3)cc2)C1 [Compound 247],< 10,< 100
CC(C)N1CCC[C@@H](c2ccc(-c3cc4c(N5CCN(C(=O)C6CC6)CC5)ccnn4c3)cc2)C1 [Compound 248],< 10,< 100
CCN1CCC(c2ccc(-c3cc4c(N5CCN(C(=O)C6CCC6)CC5)ccnn4c3)cc2)CC1 [Compound 250],< 10,< 100
CCN1CCC(c2ccc(-c3cc4c(N5CCN(C(=O)[C@H]6CC6(C)C)CC5)ccnn4c3)cc2)C1 (some centres unmarked) [Compound 251],< 10,< 100
CCN1CCC(c2ccc(-c3cc4c(N5CCN(C(=O)C6CC6)[C@H](C)C5)ccnn4c3)cc2)CC1 [Compound 252],< 10,100 to 500
Cc1cc([C@H]2CCN(C(C)C)C2)ccc1-c1cc2c(N3CCN(C(=O)C4CC4)CC3)ccnn2c1 [Compound 256],< 10,100 to 500
N#C[C@H]1C[C@@H]1C(=O)N1CCN(c2ccnn3cc(-c4ccc(C5(F)CCCNC5)cc4)cc23)CC1 (some centres unmarked) [Compound 258],< 10,< 100
CCN1CCN(c2ccc(-c3cc4c(N5CCN(C(=O)C6CC6)CC5)ccnn4c3)cc2)C(=O)C1 [Compound 259],10 to 50,> 500

SMILES,IC50 [1] [nM],IC50 [2] [nM]
CC(C)N1CCN(c2ccc(-c3cc4c(N5CCN(C(=O)C6CC6)CC5)ccnn4c3)cc2)CC1 [Compound 261],< 10,< 100
CCN1CCN(c2ccc(-c3cc4c(N5CCN(C(=O)C6CCC6)CC5)ccnn4c3)cc2)CC1 [Compound 262],< 10,100 to 500
CCN1CCN(c2ccc(-c3cc4c(N5CCN(C(=O)C6CC6)C[C@@H]5C)ccnn4c3)cc2)CC1 [Compound 263],< 10,100 to 500
CCN1CCN(c2ccc(-c3cc4c(N5CCN(C(=O)C6CC6)CC5)ccnn4c3)cc2)C[C@H]1C [Compound 264],< 10,100 to 500
CCN1CCN(c2ccc(-c3cc4c(N5CCN(C(=O)C6CC6)CC5)ccnn4c3)cc2)C[C@@H]1C [Compound 265],< 10,< 100
CC(C)N1CCC(c2ccc(-c3cc4c(N5CCN(C(=O)C6CC6)CC5)ccnn4c3)nc2)CC1 [Compound 266],< 10,< 100
CCN1CCC(Oc2ccc(-c3cc4c(N5CCN(C(=O)C6CC6)CC5)ccnn4c3)cc2)CC1 [Compound 268],10 to 50,100 to 500
CCN1CCC(COc2ccc(-c3cc4c(N5CCN(C(=O)C6CC6)CC5)ccnn4c3)cc2)C1 (centres unmarked) [Compound 270],< 10,< 100
CC(C)N1CCC(O)(c2ccc(-c3cc4c(N5CCN(C(=O)C6CC6)CC5)ccnn4c3)cc2)C1 (centres unmarked) [Compound 271],< 10,100 to 500
CCN1CCN(c2ccc(-c3cc4c(N5CCN(C(=O)N6CCC6)CC5)ccnn4c3)cc2)CC1 [Compound 272],10 to 50,100 to 500
"O=C(C1CC1)N1CCN(c2ccnn3cc(-c4ccc(N5CCN(CCO)CC5)cc4)cc23)CC1 [Compound 274, cyclopropyl(4-(6-(4-(4-(2-hydroxyethyl)piperazin-1-yl)phenyl)pyrrolo[1,2-b]pyridazin-4-yl)piperazin-1-yl)methanone]",< 10,100 to 500
"CCNC(=O)N1CCN(c2ccnn3cc(-c4ccc(C5CCN(C(C)C)CC5)cc4)cc23)CC1 [Compound 275, N-ethyl-4-(6-(4-(1-isopropylpiperidin-4-yl)phenyl)pyrrolo[1,2-b]pyridazin-4-yl)piperazine-1-carboxamide]",< 10,< 100
CCNC(=O)N1CCN(c2ccnn3cc(-c4ccc([C@@H]5CCCN(C(C)C)C5)cc4)cc23)CC1 [Compound 276],< 10,< 100
CCNC(=O)N1CCN(c2ccnn3cc(-c4ccc([C@H]5CCCN(C(C)C)C5)cc4)cc23)CC1 [Compound 277],< 10,< 100
CCN1CCC(c2ccc(-c3cc4c(N5CCN(C(=O)C6CC6)CC5)ccnn4c3)cc2)C(F)C1 (centres unmarked) [Compound 278],< 10,< 100
CCN1CC[C@H](c2ccc(-c3cc4c(N5CCN(C(=O)C6CC6)CC5)ccnn4c3)cc2)C(F)C1 (some centres unmarked) [Compound 279],10 to 50,100 to 500

# Now from value to molecule:
IC50 [1] [nM],IC50 [2] [nM],SMILES
< 10,< 100,CCN1CC[C@@H](c2ccc(-c3cc4c(N5CCN(C(=O)[C@H]6C[C@H]6F)CC5)ccnn4c3)cc2)C1 [Compound 227]
< 10,< 100,O=C(C1CCC1)N1CCN(c2ccnn3cc(-c4ccc(C5(F)CCCNC5)cc4)cc23)CC1 (centres unmarked) [Compound 229]
< 10,< 100,CCOC(=O)N1CCN(c2ccnn3cc(-c4ccc([C@H]5CCN(C(C)C)C5)cc4)cc23)CC1 [Compound 231]
< 10,100 to 500,COC(=O)N1CCN(c2ccnn3cc(-c4ccc(C5CCN(C(C)C)CC5)cc4)cc23)CC1 [Compound 232]
< 10,< 100,O=C(C1CC(F)C1)N1CCN(c2ccnn3cc(-c4ccc(N5CCNCC5)cc4)cc23)CC1 (centres unmarked) [Compound 234]
< 10,100 to 500,CCOC(=O)N1CCN(c2ccnn3cc(-c4ccc(OC5CN(C(C)C)C5)cc4)cc23)CC1 [Compound 236]
< 10,100 to 500,O=C(C1CC1)N1CCN(c2ccnn3cc(-c4ccc(C5CCNCC5(F)F)cc4)cc23)CC1 (centres unmarked) [Compound 238]
< 10,100 to 500,CCN1C[C@@H]2C[C@H]1CN2c1ccc(-c2cc3c(N4CCN(C(=O)C5CC5)CC4)ccnn3c2)cc1 [Compound 242]
< 10,< 100,CC(C)N1CCC(c2ccc(-c3cc4c(N5CCN(C(=O)C6CC6)CC5)ccnn4c3)cc2)CC1 [Compound 246]
< 10,< 100,CC(C)N1CCC(c2ccc(-c3cc4c(N5CCN(C(=O)C6CCC6)CC5)ccnn4c3)cc2)C1 (centres unmarked) [Compound 249]
< 10,100 to 500,CC(C)N1CC[C@H](c2ccc(-c3cc4c(N5CCN(C(=O)C6CC6)[C@H](C)C5)ccnn4c3)cc2)C1 [Compound 253]
< 10,< 100,CC(C)N1CC[C@@H](c2ccc(-c3cc4c(N5CCN(C(=O)C6CC6)[C@H](C)C5)ccnn4c3)cc2)C1 [Compound 254]
< 10,100 to 500,Cc1cc([C@@H]2CCN(C(C)C)C2)ccc1-c1cc2c(N3CCN(C(=O)C4CC4)CC3)ccnn2c1 [Compound 255]
< 10,< 100,CC(C)N1CCCCC1c1ccc(-c2cc3c(N4CCN(C(=O)C5CC5)CC4)ccnn3c2)cc1 (centres unmarked) [Compound 257]
< 10,100 to 500,"O=C(C1CC1)N1CCN(c2ccnn3cc(-c4ccc(N5CCNC6(COC6)C5)cc4)cc23)CC1 [Compound 260, (4-(6-(4-(2-oxa-5,8-diazaspiro[3.5]nonan-8-yl)phenyl)pyrrolo[1,2-b]pyridazin-4-yl)piperazin-1-yl)(cyclopropyl)methanone]"
< 10,< 100,CC(C)N1CCC(c2ccc(-c3cc4c(N5CCN(C(=O)C6CC6)CC5)ccnn4c3)cn2)CC1 [Compound 267]
< 10,< 100,CCN1CCCC(Oc2ccc(-c3cc4c(N5CCN(C(=O)C6CC6)CC5)ccnn4c3)cc2)C1 (centres unmarked) [Compound 269]
